From patent publication US11178873B2, “Cyclic N-carboxamide compounds useful as herbicides” (FMC CORPORATION, priority 2015, dated 2021)

Experiments:
Type in all cases: in vivo
[1] = tested on: barnyardgrass (Echinochloa crus-galli); assay: Test B flooded paddy test, barnyardgrass; conditions: Flood, 250 g ai/ha; scale 0 to 100 (0 no effect, 100 complete control); 13 to 15 d
How it was run: (§1)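 Plants at the 2-leaf stage were flooded to 3 cm above soil, and test compounds were applied directly into the paddy water, which was held at that depth throughout. After 13 to 15 d in a greenhouse, injury was rated visually against untreated controls on a 0–100 scale (0 no effect, 100 complete control).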

[2] = tested on: barnyardgrass (Echinochloa crus-galli); assay: Test A postemergence, barnyardgrass; conditions: 0 to 100 scale, 0 no effect, 100 complete control
How it was run: (§2)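 Preemergence treatment was a directed soil spray; postemergence plants were 2 to 10 cm tall at the one- to two-leaf stage. Compounds were formulated in solvent with surfactant and grown in loam/sand in the greenhouse. Injury was scored visually against untreated controls after ~10 d, on a 0 (no effect) to 100 (complete control) scale.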

[3] = tested on: foxtail, giant (giant foxtail, Setaria faberii); assay: Test A preemergence, foxtail, giant; conditions: 0 to 100 scale, 0 no effect, 100 complete control
How it was run: as §2

[4] = tested on: crabgrass, large (large crabgrass, Digitaria sanguinalis); assay: Test A postemergence, crabgrass, large; conditions: 0 to 100 scale, 0 no effect, 100 complete control
From the text: (§3) Seeds of plant species selected from barnyardgrass (Echinochloa crus-galli), crabgrass, large (large crabgrass, Digitaria sanguinalis), kochia (Kochia scoparia), ragweed (common ragweed, Ambrosia elatior), morningglory (Ipomoea spp.), velvetleaf (Abutilon theophrasti), ryegrass, Italian (Italian ryegrass, Lolium multiflorum), foxtail, giant (giant foxtail, Setaria faberii), wheat (Triticum aestivum), corn (Zea mays), and pigweed (Amaranthus retroflexus), were planted into a blend of loam soil and sand and treated preemergence with a directed soil spray using test chemicals formulated in a non-phytotoxic solvent mixture which included a surfactant. At the same time, plants selected from these crop and weed species and also blackgrass (Alopecurus myosuroides), and galium (catchweed bedstraw, Galium aparine), were planted in pots containing the same blend of loam soil and sand and treated with postemergence applications of test chemicals formulated in the same manner. Plants ranged in height from 2 to 10 cm and were in the one- to two-leaf stage for the postemergence treatment. Treated plants and untreated controls were maintained in a greenhouse for approximately 10 d, after which time all treated plants were compared to untreated controls and visually evaluated for injury. Plant response ratings, summarized in Table A, are based on a 0 to 100 scale where 0 is no effect and 100 is complete control. A dash (-) response means no test result.

[5] = tested on: pigweed (Amaranthus retroflexus); assay: Test A preemergence, pigweed; conditions: 0 to 100 scale, 0 no effect, 100 complete control
How it was run: as §2

[6] = tested on: barnyardgrass (Echinochloa crus-galli); assay: Test A preemergence, barnyardgrass; conditions: 0 to 100 scale, 0 no effect, 100 complete control
How it was run: as §2

[7] = tested on: ducksalad (Heteranthera limosa); assay: Test B flooded paddy test, ducksalad; conditions: Flood, 250 g ai/ha; scale 0 to 100 (0 no effect, 100 complete control); 13 to 15 d
How it was run: as §1

[8] = tested on: velvetleaf (Abutilon theophrasti); assay: Test A preemergence, velvetleaf; conditions: 0 to 100 scale, 0 no effect, 100 complete control
From the text: as §3

[9] = tested on: velvetleaf (Abutilon theophrasti); assay: Test A postemergence, velvetleaf; conditions: 0 to 100 scale, 0 no effect, 100 complete control
From the text: as §3

[10] = tested on: morningglory (Ipomoea spp.); assay: Test A postemergence, morningglory; conditions: 0 to 100 scale, 0 no effect, 100 complete control
From the text: as §3

[11] = tested on: morningglory (Ipomoea spp.); assay: Test A preemergence, morningglory; conditions: 0 to 100 scale, 0 no effect, 100 complete control
From the text: as §3

[12] = tested on: crabgrass, large (large crabgrass, Digitaria sanguinalis); assay: Test A preemergence, crabgrass, large; conditions: 0 to 100 scale, 0 no effect, 100 complete control
From the text: as §3

rice (Oryza sativa) = assay: Test B flooded paddy test, rice; conditions: Flood, 250 g ai/ha; scale 0 to 100 (0 no effect, 100 complete control); 13 to 15 d
How it was run: as §1

corn (Zea mays) [13] = assay: Test A postemergence, corn; conditions: 0 to 100 scale, 0 no effect, 100 complete control
How it was run: as §2

[14] = tested on: wheat (Triticum aestivum); assay: Test A preemergence, wheat; conditions: 0 to 100 scale, 0 no effect, 100 complete control
From the text: as §3

[15] = tested on: foxtail, giant (giant foxtail, Setaria faberii); assay: Test A postemergence, foxtail, giant; conditions: 0 to 100 scale, 0 no effect, 100 complete control
How it was run: as §2

corn (Zea mays) [16] = assay: Test A preemergence, corn; conditions: 0 to 100 scale, 0 no effect, 100 complete control
From the text: as §3

[17] = tested on: wheat (Triticum aestivum); assay: Test A postemergence, wheat; conditions: 0 to 100 scale, 0 no effect, 100 complete control
How it was run: as §2

[18] = tested on: pigweed (Amaranthus retroflexus); assay: Test A postemergence, pigweed; conditions: 0 to 100 scale, 0 no effect, 100 complete control
How it was run: as §2

[19] = tested on: sedge, umbrella (small-flower umbrella sedge, Cyperus difformis); assay: Test B flooded paddy test, sedge, umbrella; conditions: Flood, 250 g ai/ha; scale 0 to 100 (0 no effect, 100 complete control); 13 to 15 d
How it was run: as §1

O=C(Nc1ccccc1F)N1C(=O)OCC1c1ccc(Cl)cc1 (stereo not drawn) [Compound 4]
0: Plant response rating, Barnyardgrass [1] | Plant response rating, Barnyardgrass ([2]; 125 g ai/ha) | Plant response rating, Barnyardgrass ([2]; 500 g ai/ha) | Plant response rating, Foxtail, Giant ([3]; 125 g ai/ha) | Plant response rating, Foxtail, Giant ([3]; 500 g ai/ha) | Plant response rating, Crabgrass, Large ([4]; 125 g ai/ha) | Plant response rating, Crabgrass, Large ([4]; 500 g ai/ha) | Plant response rating, Pigweed ([5]; 125 g ai/ha) | Plant response rating, Pigweed ([5]; 500 g ai/ha) | Plant response rating, Barnyardgrass ([6]; 125 g ai/ha) | Plant response rating, Barnyardgrass ([6]; 500 g ai/ha) | Plant response rating, Ducksalad [7] | Plant response rating, Velvetleaf ([8]; 125 g ai/ha) | Plant response rating, Velvetleaf ([8]; 500 g ai/ha) | Plant response rating, Velvetleaf ([9]; 125 g ai/ha) | Plant response rating, Velvetleaf ([9]; 500 g ai/ha) | Plant response rating, Morningglory ([10]; 125 g ai/ha) | Plant response rating, Morningglory ([10]; 500 g ai/ha) | Plant response rating, Morningglory ([11]; 125 g ai/ha) | Plant response rating, Morningglory ([11]; 500 g ai/ha) | Plant response rating, Crabgrass, Large ([12]; 125 g ai/ha) | Plant response rating, Rice (rice (Oryza sativa)) | Plant response rating, Corn (corn (Zea mays) [13]; 125 g ai/ha) | Plant response rating, Corn (corn (Zea mays) [13]; 500 g ai/ha) | Plant response rating, Wheat ([14]; 125 g ai/ha) | Plant response rating, Wheat ([14]; 500 g ai/ha) | Plant response rating, Foxtail, Giant ([15]; 125 g ai/ha) | Plant response rating, Foxtail, Giant ([15]; 500 g ai/ha) | Plant response rating, Corn (corn (Zea mays) [16]; 125 g ai/ha) | Plant response rating, Corn (corn (Zea mays) [16]; 500 g ai/ha) | Plant response rating, Wheat ([17]; 125 g ai/ha) | Plant response rating, Wheat ([17]; 500 g ai/ha) | Plant response rating, Pigweed ([18]; 125 g ai/ha) | Plant response rating, Pigweed ([18]; 500 g ai/ha) | Plant response rating, Sedge, Umbrella [19]
20: Plant response rating, Crabgrass, Large ([12]; 500 g ai/ha)
